Assay results from patent US11091484B2, “Tricyclic heterocycles as BET protein inhibitors” (Incyte Corporation, priority 2013, dated 2021).
Counter-ions that a name gives are not always drawn. Like-named read-outs stand apart in the source and are kept apart here.

Columns and labels:
BRD4-BD2 = BRD4-BD2 (Homo sapiens (Human), UniProt O60885); test: BRD4 AlphaScreen assay (BRD4-BD2); type: binding; settings: H4Ac4 peptide, 20 nM BRD4-BD2, read-out: BRD4 BD-2 enzyme IC50
Procedure: (§1) BRD4-BD1 and BRD4-BD2 assays were conducted in white 384-well polystyrene plate in a final volume of 20 μL for BD1 and 40 μL for BD2. Inhibitors were first serially diluted in DMSO and added to the plate wells before the addition of other reaction components. The final concentration of DMSO in the assay was 1.25% (BD1) and 0.83% (BD2). The assays were carried out at room temperature for 75 min. in the assay buffer (50 mM HEPES, pH 7.4, 100 mM NaCl, 0.05% CHAPS, 0.01% BSA), containing 50 nM Biotin-labeled tetra-acetylated histone H4 peptide (H4Ac4), 3.8 nM (BRD4-BD1, BPS Bioscience #31040) or 20 nM (BRD4-BD2, BPS Bioscience #31041). The reaction followed by the addition of 20 μL of assay buffer supplemented with Streptavidin donor beads (PerkinElmer 6760002) and GSH Acceptor beads (PerkinElmer-AL109C) at 4 μg/mL under reduced light. After plate sealing, the plate was incubated in the dark at room temperature for 75 min. before reading on a PHERAstar FS plate reader (BMG Labtech). IC50 determination was performed by fitting the curve of percent control activity versus the log of the inhibitor concentration using the GraphPad Prism 5.0 software.

BRD4-BD1 = BRD4-BD1 (Homo sapiens (Human), UniProt O60885); test: BRD4 AlphaScreen assay (BRD4-BD1); type: binding; settings: H4Ac4 peptide, 3.8 nM BRD4-BD1, read-out: BRD4 BD-1 enzyme IC50
Procedure: as §1

[1] = tested on: KMS.12.BM cell line (human myeloma); test: KMS.12.BM cell viability assay; type: cell-based; settings: KMS.12.BM cells, 3 days, Cell Titer-GLO ATP quantitation, read-out: KMS cellular IC50
Procedure: KMS. 12.BM cell line (human myeloma) was purchased from JCRB (Osaka, Japan) and maintained in RPMI with 10% FBS culture medium. To measure the cytotoxic activity of the compounds through ATP quantitation, the KMS. 12.BM cells are plated in the RPMI culture medium at 5000 cells/well/per 100 μL into a 96-well polystyrene clear black tissue culture plate (Greiner-bio-one through VWR, NJ), in the presence or absence of a concentration range of test compounds. After 3 days, […] Cell Titer-GLO Luminescent (Promega, Madison, Wis.) cell culture agent is added to each well for 10 minutes at room temperature to stabilize the luminescent signal. This determines the number of viable cells in culture based on quantitation of the ATP present, which signals the presence of metabolically active cells. Luminescence is measured with the Top Count 384 (Packard Bioscience through Perkin Elmer, Boston, Mass.). […] IC50 data for the Examples is presented in Table 4 as determined by Assay B1.

`Cc1cc2c(cc(N[C@H]3CCN(C)[C@@H](C)C3)c3nnc(C)n32)n1Cc1ccccc1` (racemic) [Example 224, 6-Benzyl-N-[(2S,4S)-1,2-dimethylpiperidin-4-yl]-1,7-dimethyl-6H-pyrrolo[2,3-e][1,2,4]triazolo[4,3-a]pyridin-4-amine and 6-Benzyl-N-[(2R,4R)-1,2-dimethylpiperidin-4-yl]-1,7-dimethyl-6H-pyrrolo[2,3-e][1,2,4]triazolo[4,3-a]pyridin-4-amine (Racemic Mixture Prepared)] was tested, and the IC50 (BRD4-BD2) was ≤ 100 nM, the IC50 (BRD4-BD1) was ≤ 100 nM and the IC50 ([1]; Homo sapiens, 72 h) was ≤ 1000 nM.

`Cc1nnc2ccc3c(cc(-c4ccn(CCC(=O)N(C)C)n4)n3Cc3cccc(Cl)c3)n12` [Example 103, 3-{3-[6-(3-chlorobenzyl)-1-methyl-6H-pyrrolo[2,3-e][1,2,4]triazolo[4,3-a]pyridin-7-yl]-1H-pyrazol-1-yl}-N,N-dimethylpropanamide] was tested, and the IC50 ([1]; Homo sapiens, 72 h) was ≤ 1000 nM.

With `Cc1nnc2ccc3c(cc(-c4cc[nH]n4)n3Cc3cccc(CN4CCC4)c3)n12` [Example 182, 6-[3-(Azetidin-1-ylmethyl)benzyl]-1-methyl-7-(1H-pyrazol-3-yl)-6H-pyrrolo[2,3-e][1,2,4]triazolo[4,3-a]pyridine tris(trifluoroaceate) Salt] the IC50 [1] was ≤ 1000 nM.
